Literature values, collected in patent US20250312272A1, “PHARMACEUTICAL FORMULATIONS FOR ORAL ADMINISTRATION AND METHODS OF MAKING AND USING THE SAME” (Aaryen Pharma LLC, priority 2024, published 2025).
Counter-ions that a name gives are not always drawn.

Compound	solubility (descriptive term of Table 1) (in water)	solubility in water
COc1ccccc1OCC(O)CO (centres unmarked) [guaifenesin]	sparingly soluble	
COc1ccc2c(c1)[C@]13CCCC[C@@H]1[C@H](C2)N(C)CC3 [dextromethorphan hydrobromide]		water soluble
